The text below walks through data of patent US7989433B2, “Substituted thieno[3,2-D]pyrimidines as melanin concentrating hormone receptor-1 antagonists” (Bristol-Myers Squibb Company, priority 2008, dated 2011).

Data set [1] has as its system cytochrome P450 enzymes (rat microsomal). The data set can be described thus: Metabolic stability versus rat microsomal oxidative degradation. To be noted: rat microsomal oxidative degradation mediated by cytochrome P450.
Data set [2] concerns the target T1, MCHR (Rattus norvegicus, UniProt P97639).
T1 construct: from tissue; host or cells: whole animal: male Sprague Dawley / Charles River rats
Put plainly: Assessment of in vivo MCHR activity in young growing rats (four day efficacy model). To be noted: for Efficacy at 30 mg/kg (weight loss in young growing rats): 30 mg/kg daily p.o. of ester prodrug, four day model; for Weight Reduction versus Vehicle: young growing rats. How it is done:
Male SPRAGUE DAWLEY® (CD, Charles River Breeding Laboratory) rats weighing approximately 240 grams were place in individual plastic cages with ALPHADRI® bedding. The room was maintained at 72° F. and 50% humidity, and a 12/12 light dark cycle with lights out at 1600 hours. The rats were conditioned for 5 days prior to the start of the study to having a choice of foods. A normal chow (HARLAN TEKLAD®, 2018) that contains 18% protein, 5% fat and 73% carbohydrate and a high fat high sugar diet (Research Diets (D2327)) that contains 20% protein, 40% fat and 40% carbohydrate where the carbohydrate is entirely sucrose and the fat is soybean and coconut oil. […] Body weight and consumption of both kinds of food as well as water intake were measured daily. Water was available ad lib throughout the study. Food consumption is presented as daily caloric consumption which is the sum of grams of chow multiplied by the Kcal per gram (3.5) plus grams of high fat high sugar multiplied by Kcal per gram (4.59).
Baseline body weight was measured prior to drug treatment on day 0 of the study. Baseline food consumption was the average of the 3 days prior to the first drug treatment. […] All data were evaluated using ANOVA and Fishers PLSD statistics.

A short description of data set [3]: One month rat study, formation of biliary lesions. The data set is classed as in vivo. As to conditions: for Formation of Biliary Lesions: rats; for biliary lesion formation in rats: doses up to 300 mg/kg for a month. The text has this: Further investigation established that the toxic agent was a metabolite arising from in vivo oxidative hydroxylation of the alkyl chain containing the tertiary carbinol moiety of compound f.

For data set [4], the target named is T2, mutated (E4Q, A5T) hMCHR1 receptor (Homo sapiens, UniProt Q99705, A5T/E4Q).
T2 construct: expressed in transfected cells; host or cells: HEK-293 (stably transfected), membrane preparation
T2 sequence (Q99705 whole entry E4Q/A5T): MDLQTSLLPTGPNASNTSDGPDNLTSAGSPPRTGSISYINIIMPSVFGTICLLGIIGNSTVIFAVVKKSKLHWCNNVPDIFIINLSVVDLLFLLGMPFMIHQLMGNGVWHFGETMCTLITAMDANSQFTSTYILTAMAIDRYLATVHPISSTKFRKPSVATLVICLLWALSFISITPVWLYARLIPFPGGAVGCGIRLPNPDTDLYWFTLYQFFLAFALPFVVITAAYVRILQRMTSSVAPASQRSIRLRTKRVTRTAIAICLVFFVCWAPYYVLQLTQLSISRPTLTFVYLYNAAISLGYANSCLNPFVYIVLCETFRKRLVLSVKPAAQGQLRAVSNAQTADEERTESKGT
The data set can be described thus: Radioligand binding assay for assessment of MCHR1 activity. To be noted: competition vs [Phe13,[125I]Tyr19]-MCH, HEK-293 membranes. The source says:
Compounds of the present invention, namely Compounds IA and IB of the invention, and Compounds a to f (prepared as described in U.S. Patent Publication No. 2007/0093509 A1 published Apr. 26, 2007), were initially characterized in an in vitro binding assay to determine their Ki or ability to antagonize binding of a peptide agonist to the human melanin concentrating hormone receptor (MCHR1).
Radioligand Binding Assay for Assessment of MCHR1 Activity
Membranes from stably transfected HEK-293 cells expressing a mutated (E4Q, A5T) hMCHR1 receptor were prepared by dounce homogenization and differential centrifugation. Binding experiments were carried out with 0.5-1.0 ug of membrane protein incubated in a total of 0.2 ml in 25 mM HEPES (pH 7.4) with 10 mM MgCl2, 2 mM EGTA, and 0.1% BSA (Binding Buffer) for 90 min. For competition binding assays, reactions were carried out in the presence of with 0.06-0.1 nM [Phe^13, [^125I]Tyr^19]-MCH and increasing concentrations of unlabeled test molecules. Reactions were terminated by rapid vacuum filtration over 96 well-GFC Unifilter plates pre-coated with 0.075 ml binding buffer containing 1% BSA, and washed 3 times with 0.4 ml of Phospho-buffered Saline (pH 7.4) containing 0.01% TX-100, Filters were dried, 0.05 ml MicroScint 20 was added to each well and radioactivity was subsequently quantified by scintillation counting on a TOPCOUNT® microplate scintillation counter (Packard). Inhibitory constants were determined by nonlinear least squares analysis using a four parameter logistic equation.

Data set [5] is described as follows: Rat PK model / eight hour PK study after oral prodrug ester. The data set is classed as in vivo. As to conditions: Sprague-Dawley; for AUC: blood, 10 mg/kg oral prodrug ester, 8 hr AUC of bio-active substance, no unit in table (b280 micromole*hr); for Kp: brain and plasma, 10 mg/kg oral dose of amino acid ester prodrug (valine or glycine), bio-active substance. Here is the method:
The relative ability of the prodrug to enhance exposure (bioavailability) was assessed in an eight hour PK study using cannulated SPRAGUE DAWLEY® (CD, Charles River Breeding Laboratory) rats. The compounds (parent and pro-drug esters) were administered p.o. at 2.0 ml/kg as a suspension in 0.5% methyl cellulose, 0.1% Tween 80 in water at 10 mg/kg p.o. Blood samples were taken at 1, 2, 4 and 8 hr. After determination of parent concentration, an AUC was calculated for the eight hour study.

Data set [6] in a line: Full PK study in dog (half-life). To be noted: in vivo.
The test system of data set [7] is hepatocytes. Put plainly: Hepatocyte clearance, dog. The data set is classed as in vitro ADME.
In data set [8] the test system is hepatocytes. The data set can be described thus: Hepatocyte clearance, human. The data set is classed as in vitro ADME. The text has this: As a consequence the projected human half-life for these two compounds was predicted to be 20 to 40 hr.
In data set [9] the target is T1, MCHR. Put plainly: Assessment of MCHR in vivo activity in mature obese rats. As to conditions: dosed as prodrug. How it is done: Male rats, obtained from Charles River Laboratories weighing 250-300 g, were singly housed in plastic cages on a 12 hour light, 12 hour dark cycle with lights out at 1 pm. The animal room was maintained at 72 degrees F. and 50% humidity. The rats were made obese by giving them simultaneous access to two different diets, HARLAN TEKLAD® rat chow (standard chow) and Research Diets D12327 (a high fat, high carbohydrate, highly palatable diet). The Research Diets chow is comprised of 40% vegetable fat, 40% carbohydrate (sucrose) and 20% protein. The Harlan diet is comprised of 5% fat (soybean oil), 67% carbohydrate (starch) and 22% protein. The normal Harlan rat diet used contains 3.4 kcal/gram of diet, and Research Diet #12327 contains 4.59 kcal/gram. The rats were on the choice diet regime for 10 weeks in order to induce obesity. Once started on the choice diet regime the rats are maintained on it for the duration of the study. Baseline feeding and body weight were collected and used to sort animals into treatment groups. Mean rat weight at the start of the choice diet was 250 grams. The mean weight of the rats at the start of chronic dosing was 661.7±6.3 (mean±sem) grams.
Rats were dosed orally one hour before the start of the dark cycle. Body weight and food consumption were measured daily at the time of dosing. Food consumption was converted to Kcal consumed. Total Kcal consumed was determined by adding the Kcal consumed for each diet and this was determined by multiplying grams of each diet consumed times the Kcal/gram. […]

Where [10] appears, read: 3 mg/kg p.o. daily day 0-4, dosed as prodrug.
Where [11] appears, read: 10 mg/kg p.o. daily day 0-4, dosed as prodrug.
[12] abbreviates: 30 mg/kg p.o. daily day 0-4, dosed as prodrug.

T1 sequence (P97639 whole entry): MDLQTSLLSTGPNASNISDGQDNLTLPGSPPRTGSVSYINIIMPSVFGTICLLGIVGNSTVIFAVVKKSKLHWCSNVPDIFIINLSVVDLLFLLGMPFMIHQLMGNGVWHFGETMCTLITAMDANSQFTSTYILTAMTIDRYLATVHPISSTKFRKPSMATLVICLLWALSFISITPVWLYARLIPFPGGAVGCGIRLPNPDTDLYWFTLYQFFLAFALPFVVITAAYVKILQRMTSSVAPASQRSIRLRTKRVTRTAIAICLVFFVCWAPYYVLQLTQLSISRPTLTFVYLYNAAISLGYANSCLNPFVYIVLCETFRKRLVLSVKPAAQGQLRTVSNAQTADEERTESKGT

Regarding `COc1cc(-n2cnc3cc(-c4ccc(Cl)cc4)sc3c2=O)ccc1OCC1(O)COC1` [b], the “Rat Microsomal Stability” value in data set [1] is 40%. The “Efficacy at 30 mg/kg (weight loss in young growing rats)” value at MCHR [2] amounted to 0%. Moreover, the “Formation of Biliary Lesions” value in [3] was “Yes”.

What is called Ki is a measure of affinity in units of concentration, obtained from inhibition or displacement. The AUC is the area under the concentration-time curve, a measure of exposure. The term Kp denotes tissue or fluid exposure divided by exposure in the circulation. For the compound `CCS(=O)(=O)CC(O)COc1ccc(-n2cnc3cc(-c4ccc(Cl)cc4)sc3c2=O)cc1OC` (stereo not drawn) [e], in data set [1], the “Rat Microsomal Stability” value turned out to be 100%. Moreover, the “Efficacy at 30 mg/kg (weight loss in young growing rats)” value on MCHR [2] is reported as 4.5%. Also, in [3], the “Formation of Biliary Lesions” value is listed as “No”. In addition, in [4], the Ki came to 8 nM. Also, in [5], the AUC stood at 46 µM·h and the Kp was determined as 0.09.

As a reminder, the half-life is the time in which the quantity being followed falls by half. As to `COc1cc(-n2cnc3cc(-c4ccc(Cl)cc4)sc3c2=O)ccc1OCC(C)(C)O` [f], the “Rat Microsomal Stability” value in data set [1] was 98%. Besides, at MCHR [2], the “Efficacy at 30 mg/kg (weight loss in young growing rats)” value was found to be 8.2%. The same compound returned a half-life in [6] (Dog Half-life (hr)) greater than 200 h. The hepatocyte clearance entry with hepatocytes [7] is “very slow”. Moreover, the “biliary lesions in rats” value in [3] (30 mg/kg for a month) is “developed obstructive hepatic biliary lesions”. The “Formation of Biliary Lesions” value in data set [3] was “Yes”. The compound further returned an inhibitory constant (Ki) in [4] of 12 nM. Moreover, the hepatocyte clearance entry in the data set with hepatocytes [8] is on record as “very slow”. Further, in data set [5], the AUC was 45 µM·h and the concentration ratio (Kp) stood at 2.

Turning to `COc1cc(-n2cnc3cc(-c4ccc(Cl)cc4)sc3c2=O)ccc1OCC(O)CC(F)(F)F` (stereo not drawn) [d], the “Rat Microsomal Stability” value in [1] is listed as 100%. The “Efficacy at 30 mg/kg (weight loss in young growing rats)” value on MCHR [2] turned out to be 3.2%. Also, the “Formation of Biliary Lesions” value in data set [3] is “No”. Also, in data set [4], the Ki amounted to 11 nM. For the same compound, in data set [5], the AUC stood at 20 µM·h and the Kp came to 1.1.

As to `CCC(O)COc1ccc(-n2cnc3cc(-c4ccc(Cl)cc4)sc3c2=O)cc1OC` (stereo not drawn) [c], in data set [1], the “Rat Microsomal Stability” value was found to be 60%. The “Efficacy at 30 mg/kg (weight loss in young growing rats)” value at MCHR [2] is 4.1%. The “Formation of Biliary Lesions” value in data set [3] is given as “No”. For the same compound, the affinity in [4], expressed as Ki, was 12 nM. Also, in data set [5], the AUC came to 14.5 µM·h and the Kp was 3.2.

Broadly, the melting point is the temperature, or range, at which the solid turns liquid. The compound `COc1cc(-n2cnc3cc(-c4ccc(Cl)cc4)sc3c2=O)ccc1OC[C@H](OC(=O)CN)C1CC1.Cl` [Example 5, (R)-2-(4-(6-(4-Chlorophenyl)-4-oxothieno[3,2-d]pyrimidin-3(4H)-yl)-2-methoxy-phenoxy)-1-cyclopropylethyl 2-aminoacetate, hydrochloride salt] came in with a melting point of 218 to 220 °C.

Turning to `COc1cc(-n2cnc3cc(-c4ccc(Cl)cc4)sc3c2=O)ccc1OCC1(O)CC(F)(F)C1` [IB, 6-(4-Chlorophenyl)-3-(4-((3,3-difluoro-1-hydroxycyclobutyl)methoxy)-3-methoxyphenyl)thieno[3,2-d]pyrimidin-4(3H)-one], the “Rat Microsomal Stability” value in data set [1] is listed as 95%. The “Weight Reduction versus Vehicle” value at MCHR [9] (0.03 mg/kg oral chronic dosing) is given as 1.7%; at MCHR [9] (0.1 mg/kg oral chronic dosing), 3.2%; on MCHR [9] (0.3 mg/kg oral chronic dosing) it was 5.0%; at MCHR [9] (1 mg/kg oral chronic dosing) it was 6.6%; on MCHR [9] (3 mg/kg oral chronic dosing), 7.8%; on MCHR [2] (1 mg/kg p.o. daily day 0-4, dosed as prodrug) it was 2.9%. Also, the “Weight Reduction versus Vehicle” value is listed as 4.5% on MCHR [2] (setting [10]), 6.4% at MCHR [2] (setting [11]) and 7.9% at MCHR [2] (setting [12]). In addition, on MCHR [2], the “Efficacy at 30 mg/kg (weight loss in young growing rats)” value was 7.9%. Also, the half-life is 16 h in data set [6] and less than 20 h in [6] (Dog Half-life (hr)). Further, in [3], the “biliary lesion formation in rats” value is recorded as “neither compound IA nor compound IB induced biliary lesion formation”. The “Formation of Biliary Lesions” value in data set [3] is on record as “No”. Further, the Ki in data set [4] was 18 nM. Moreover, the hepatocyte clearance entry in the data set with hepatocytes [8] is on record as “approximated that of dog”. Moreover, in data set [5], the AUC was 38 µM·h. Further, the concentration ratio (Kp) in [5] came out at 2.5.

As for `COc1cc(-n2cnc3cc(-c4ccc(Cl)cc4)sc3c2=O)ccc1OC[C@H](O)C1CC1` [IA, (R)-6-(4-Chlorophenyl)-3-(4-(2-cyclopropyl-2-hydroxyethoxy)-3-methoxyphenyl)-thieno[3,2-d]pyrimidin-4(3H)-one], in data set [1], the “Rat Microsomal Stability” value was 92%. Further, at MCHR [2], the “Efficacy at 30 mg/kg (weight loss in young growing rats)” value worked out at 6.4%. This compound also had a half-life in data set [6] (Dog Half-life (hr)) of less than 20 h. In data set [3], the “biliary lesion formation in rats” value is on record as “neither compound IA nor compound IB induced biliary lesion formation” and the “Formation of Biliary Lesions” value was “No”. Further, the inhibition constant Ki in data set [4] is 10 nM. In addition, in the data set with hepatocytes [8], the hepatocyte clearance result was “approximated that of dog”. Moreover, in [5], the AUC stood at 24.5 µM·h and the concentration ratio (Kp) was 0.9.

`COc1cc(-n2cnc3cc(-c4ccc(Cl)cc4)sc3c2=O)ccc1OCC1(O)CCC1` [a]: in data set [1], the “Rat Microsomal Stability” value came to 20%.

As for “(R)-6-(4-Chlorophenyl)-3-(4-(2-cyclopropyl -2-hydroxyethoxy)-3-methoxyphenyl)-thieno[3,2-d]pyrimidin-4(3H)-one [IA]”, the “Weight Reduction versus Vehicle” value is 2.09% at MCHR [9] (0.3 mg/kg oral chronic dosing); 3.90% at MCHR [9] (1 mg/kg oral chronic dosing); 3.57% on MCHR [9] (3 mg/kg oral chronic dosing); 8.42% at MCHR [9] (10 mg/kg oral chronic dosing); 10.16% at MCHR [9] (30 mg/kg oral chronic dosing); 2.6% on MCHR [2] (setting [10]). Besides, the results for the “Weight Reduction versus Vehicle” value at MCHR [2] (setting [11]) and on MCHR [2] (setting [12]) were 3.5% and 6.4%, respectively.
